pEC50: −log10 of the molar value.
Assays:
[1] = target: T1, hFXR (Homo sapiens, UniProt Q96RI1); assay: In Vitro FXR Assay (TK); assay type: cell-based; details: transfected CV-1 cells (hFXR, hRXR, TK-ECRE-luc), 18 hrs incubation, luminescence
T1 construct: expressed in transfected cells; host or cells: CV-1 cells
T1 sequence (Q96RI1 1-486): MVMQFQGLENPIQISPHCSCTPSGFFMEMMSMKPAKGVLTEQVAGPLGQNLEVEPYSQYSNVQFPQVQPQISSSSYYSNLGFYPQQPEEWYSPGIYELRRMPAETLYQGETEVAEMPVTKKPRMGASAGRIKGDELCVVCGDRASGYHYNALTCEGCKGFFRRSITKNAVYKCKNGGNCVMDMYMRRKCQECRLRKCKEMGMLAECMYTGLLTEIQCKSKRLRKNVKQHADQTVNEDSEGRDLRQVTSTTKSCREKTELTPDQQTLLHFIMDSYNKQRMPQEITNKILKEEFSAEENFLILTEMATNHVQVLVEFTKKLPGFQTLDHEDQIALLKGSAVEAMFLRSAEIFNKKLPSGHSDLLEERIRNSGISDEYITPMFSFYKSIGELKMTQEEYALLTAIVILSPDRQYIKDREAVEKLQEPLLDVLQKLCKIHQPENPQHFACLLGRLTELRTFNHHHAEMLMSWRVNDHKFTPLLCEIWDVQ
T1 sequence (P19793 1-462 partner): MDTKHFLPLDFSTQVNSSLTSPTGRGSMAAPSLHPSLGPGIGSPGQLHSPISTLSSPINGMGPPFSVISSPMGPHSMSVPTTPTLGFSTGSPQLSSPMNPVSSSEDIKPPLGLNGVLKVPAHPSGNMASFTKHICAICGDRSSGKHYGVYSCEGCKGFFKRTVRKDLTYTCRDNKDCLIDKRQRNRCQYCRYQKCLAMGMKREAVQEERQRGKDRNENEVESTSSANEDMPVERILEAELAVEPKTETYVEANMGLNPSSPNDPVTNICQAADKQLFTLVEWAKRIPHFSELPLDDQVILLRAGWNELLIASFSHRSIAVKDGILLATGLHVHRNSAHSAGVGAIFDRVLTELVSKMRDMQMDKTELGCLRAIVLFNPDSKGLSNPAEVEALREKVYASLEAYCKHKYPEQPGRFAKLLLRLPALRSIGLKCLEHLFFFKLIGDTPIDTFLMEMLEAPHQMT
Protocol: CV-1 cells were seeded at a density of 2,000,000 cells in a T175 flask with DMEM+10% charcoal double-stripped FBS and incubated at 37° C. in 5% CO2 for 18 h (O/N).
After 18 h of incubation, the medium in the T175 flask was changed with fresh DMEM+10% charcoal super-stripped serum. In a polypropylene tube, 2500 μL OptiMEM (Life Technologies, Cat #31985-062) was combined with expression plasmids for hFXR, hRXR, TK-ECRE-luc and pCMX-YFP. The tube was then briefly vortexed and incubated at room temperature for 5 minutes. Transfection reagent (X-tremeGENE HP from Roche, Cat #06 366 236 001) was added to the OptiMEM/plasmid mixture vortexed and incubated at room temperature for 20 minutes. Following incubation, the transfection reagent/DNA mixture complex was added to cells in the T175 flask and the cells were incubated at 37° C. in 5% CO2 for 18 h (O/N).
Compound 1 was serially diluted in DMSO and added to transfected CV-1 cells. The cells were then incubated for 18 hrs. The next day cells were lysed and examined for luminescence. Compound 1 TK hFXR: EC50≤0.01 μM.

[2] = target: T2, FXR (Homo sapiens, UniProt Q96RI1); details: published clinical studies, higher administered doses; cited from earlier work
T2 sequence (Q96RI1 1-486): T1 sequence (Q96RI1 1-486)

Compound | pEC50 [1] | adverse side effects [2]
COc1ccc(C23CCC(CN(c4cc(-c5cnn(C(C)(C)C)c5)ccn4)C(=O)[C@H]4CC[C@H](OC(=O)N5CC(O)C5)CC4)(CC2)CC3)cc1C [Compound 1, 4-((4-(1-(tert-butyl)-1H-pyrazol-4-yl)pyridin-2-yl)((4-(4-methoxy-3-methylphenyl)bicyclo[2.2.2]octan-1-yl)methyl)carbamoyl)cyclohexyl 3-hydroxyazetidine-trans-1-carboxylate] | ≥ 8.00 | 
CC[C@H]1[C@@H](O)[C@@H]2[C@H](CC[C@]3(C)[C@@H]([C@H](C)CCC(=O)O)CC[C@@H]23)[C@@]2(C)CC[C@@H](O)C[C@@H]12 [OCA, Obeticholic acid] |  | adverse side effects at higher administered doses, such as pruritis, increased LDL cholesterol and liver toxicity

From patent US12491160B2, “Formulations of a farnesoid X receptor agonist” (ELI LILLY AND COMPANY, priority 2020, dated 2025)
